Measurements reported in patent US12622965B2, “Therapeutical tools and methods using temperature-sensitive receptors for treating blindness” (FRIEDRICH MIESCHER INSTITUTE FOR BIOMEDICAL RESEARCH, priority 2020, dated 2026).

Test system: rd1 cones
Assay: two-photon calcium imaging of cone cell bodies and axon terminals in wholemount rd1 retinas
Type: cell-based, mouse
Excerpt: To measure if NIR light drives responses in cones, the inventors performed two-photon calcium imaging of individual cone cell bodies and axon terminals in wholemount rd1 retinas in three conditions: first, rTRPV1 with 915 nm nanorods, second, rTRPV without nanorods and third, 915 nm nanorods without rTRPV1. To detect calcium signals, the inventors genetically targeted the calcium indicator GCaMP6s to cones via AAV that expresses GCaMP6s under a cone-specific promoter (ProA7). GCaMP6s was expressed in 67±5.1% of rd1 cones (n=12,813 cones mm−2, n=8635 GCaMP6s positive cones mm−2, mean±s.d).
Near-infrared (NIR) pulses were produced by two custom-made, single wavelength NIR diode lasers emitting at 915 nm or 980 nm, modelled after J. Yao, B. Liu, and F. Qin. […] Total laser power output, as a function of driving voltage, was measured by placing cannula (CFM14L20) and patch cable (M37L02) output at the entrance of an integrating sphere photodiode power sensor (Thorlabs, S142C) with a PM100D read-out unit. Oscilloscope read-out of laser response time was obtained by applying a step control voltage to the lasers. […]
For two-photon calcium imaging of mouse cone photoreceptors, wild-type and rd1 retinas were isolated in oxygenated Ringer's medium. […] Fluorescence was analyzed semi-online via custom-made software written in Python by Z. Raics (A. Drinnenberg et al. Neuron 99, 117-134 e111 (2018)). […]

Substance: TRPV1.465-6x-His: rat TRPV1 channel with 6x-His epitope tag inserted in the first extracellular loop after amino acid 465; delivered by AAV
- reaction of rTRPV1 expressing cones to light without nanorods: did not react to light
